Data taken from patent publication US20250049035A1, “MICROBIOCIDAL BICYCLE HETEROCYCLIC DERIVATIVES” (SYNGENTA CROP PROTECTION AG, priority 2021, published 2025).

Legend:
[1] = tested on: Monographella nivalis (Microdochium nivale); assay: Monographella nivalis (Microdochium nivale) / liquid culture (foot rot cereals); type: cell-based; conditions: liquid culture (potato dextrose broth), growth inhibition photometrically 4-5 days after application, compared to untreated control
Method in brief: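 Cryostored conidia suspended in potato dextrose broth and added to compound dispensed from DMSO solution. Growth at 24 °C; inhibition read photometrically 4–5 days after application.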

[2] = tested on: Mycosphaerella arachidis (Cercospora arachidicola); assay: Mycosphaerella arachidis (Cercospora arachidicola) / liquid culture (early leaf spot); type: cell-based; conditions: liquid culture (potato dextrose broth), growth inhibition photometrically 4-5 days after application, compared to untreated control
Method in brief: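 Cryostored conidia mixed into potato dextrose broth and added to compound dispensed in DMSO. Plates held at 24 °C; growth inhibition assessed photometrically 4–5 days after application.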

[3] = tested on: Thanatephorus cucumeris (Rhizoctonia solani); assay: Thanatephorus cucumeris (Rhizoctonia solani) / liquid culture (foot rot, damping-off); type: cell-based; conditions: 20 ppm; liquid culture (potato dextrose broth), growth inhibition photometrically 3-4 days after application; compared to untreated control
Protocol: Example B13: Thanatephorus cucumeris (Rhizoctonia solani)/Liquid Culture (Foot Rot, Damping-Off) Mycelia fragments of a newly grown liquid culture of the fungus are directly mixed into a nutrient broth (potato dextrose broth). After placing a DMSO solution of the test compounds into a microtiter plate (96-well format), the nutrient broth containing the fungal material is added. The test plates are incubated at 24° C. and the inhibition of growth is determined photometrically 3-4 days after application.

[4] = tested on: Mycosphaerella graminicola (Septoria tritici); assay: Mycosphaerella graminicola (Septoria tritici) / liquid culture (Septoria blotch); type: cell-based; conditions: Zymoseptoria tritici, liquid culture (potato dextrose broth), growth inhibition photometrically 4-5 days after application, compared to untreated control
Method in brief: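 Cryostored conidia in potato dextrose broth added to compound in DMSO, incubated at 24 °C. Growth inhibition read photometrically 4–5 days after application.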

[5] = tested on: Blumeria graminis f. sp. tritici (Erysiphe graminis f. sp. tritici); assay: Blumeria graminis f. sp. tritici / wheat / leaf disc preventative (powdery mildew); type: in vivo; conditions: foliar, wheat leaf segments cv. Kanzler, inoculated 1 day after application, assessed 6-8 days after application, compared to untreated control
Protocol: Example B4: Blumeria graminis f. sp. tritici (Erysiphe graminis f. sp. tritici)/Wheat/Leaf Disc Preventative (Powdery Mildew on Wheat) Wheat leaf segments cv. Kanzler are placed on agar in a multiwell plate (24-well format) and sprayed with the formulated test compound diluted in water. The leaf disks are inoculated by shaking powdery mildew infected plants above the test plates 1 day after application. The inoculated leaf disks are incubated at 20° C. and 60% relative humidity under a light regime of 24 h darkness followed by 12 h light/12 h darkness in a climate chamber and the activity of a compound is assessed as percent disease control compared to untreated when an appropriate level of disease damage appears on untreated check leaf segments (6-8 days after application).

[6] = tested on: Pyrenophora teres; assay: Pyrenophora teres / barley / leaf disc preventative (net blotch); type: in vivo; conditions: foliar, barley leaf segments cv. Hasso, inoculated 2 days after application, assessed 5-7 days after application, compared to untreated control
Method in brief: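 Leaf segments of barley cv. Hasso on agar sprayed with water-diluted formulated compound, then inoculated with spores 2 days later. Incubation at 20 °C, 65% RH, 12 h light/12 h dark.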

[7] = tested on: Botryotinia fuckeliana (Botrytis cinerea); assay: Botryotinia fuckeliana (Botrytis cinerea) / liquid culture (gray mould); type: cell-based; conditions: liquid culture (Vogels broth), growth inhibition photometrically 3-4 days after application, compared to untreated control
Method in brief: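 Conidia from cryogenic storage, suspended in Vogels nutrient broth, added to compound applied as a DMSO solution. Incubation at 24 °C; growth inhibition read photometrically 3–4 days after application.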

[8] = tested on: Alternaria solani; assay: Alternaria solani / tomato / leaf disc (early blight); type: in vivo; conditions: foliar, tomato leaf disks cv. Baby, inoculated 2 days after application, assessed 5-7 days after application, compared to untreated control
Protocol: Example B1: Alternaria solani/Tomato/Leaf Disc (Early Blight) Tomato leaf disks cv. Baby are placed on agar in multiwell plates (24-well format) and sprayed with the formulated test compound diluted in water. The leaf disks are inoculated with a spore suspension of the fungus 2 days after application. The inoculated leaf disks are incubated at 23° C./21° C.

[9] = tested on: Glomerella lagenarium (Colletotrichum lagenarium); assay: Glomerella lagenarium (Colletotrichum lagenarium) / liquid culture (anthracnose); type: cell-based; conditions: Colletotrichum orbiculare, liquid culture (potato dextrose broth), growth inhibition photometrically 3-4 days after application, compared to untreated control
Method in brief: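 Cryostored conidia in potato dextrose broth were added to wells holding compound in DMSO and incubated at 24° C. Growth inhibition read photometrically 3-4 days after application.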

[10] = tested on: Phaeosphaeria nodorum (Septoria nodorum); assay: Phaeosphaeria nodorum (Septoria nodorum) / wheat / leaf disc preventative (glume blotch); type: in vivo; conditions: Parastagonospora nodorum, foliar, wheat leaf segments cv. Kanzler, inoculated 2 days after application, assessed 5-7 days after application, compared to untreated control
Method in brief: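 Wheat leaf segments (cv. Kanzler) on agar were sprayed with diluted formulated compound and inoculated with fungal spores 2 days later. Incubation was at 20 °C, 75% relative humidity and 12 h light/dark. Percent disease control versus untreated leaf disks was scored 5-7 days after application.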

[11] = tested on: Fusarium culmorum; assay: microbe, parasite or virus in culture; type: cell-based; conditions: read-out: control of Fusarium culmorum
[12] = tested on: Sclerotinia sclerotiorum; assay: Sclerotinia sclerotiorum / liquid culture (cottony rot); type: cell-based; conditions: liquid culture (potato dextrose broth), growth inhibition photometrically 3-4 days after application, compared to untreated control
Protocol: Example B14: Sclerotinia sclerotiorum/Liquid Culture (Cottony Rot) Mycelia fragments of a newly grown liquid culture of the fungus are directly mixed into a nutrient broth (potato dextrose broth). After placing a DMSO solution of test compound into a microtiter plate (96-well format) the nutrient broth containing the fungal material is added. The test plates are incubated at 24° C. and the inhibition of growth is determined photometrically 3-4 days after application.

Row | Structure (SMILES) | inhibition of growth at 20 ppm [1] [%] | inhibition of growth at 20 ppm [2] [%] | control of Thanatephorus cucumeris [3] | inhibition of growth at 20 ppm [4] [%] | pest or weed control at 200 ppm [5] [%] | pest or weed control at 200 ppm [6] [%] | inhibition of growth at 20 ppm [7] [%] | pest or weed control at 200 ppm [8] [%] | inhibition of growth at 20 ppm [9] [%] | pest or weed control at 200 ppm [10] [%] | inhibition of growth at 20 ppm [11] [%] | inhibition of growth at 20 ppm [12] [%]
1 | C[C@@H]1c2ccsc2[C@@](C)(c2cnn(C)c2)CN1C(=O)c1nnc(-c2ccc(F)cc2F)s1 (racemic) [Compound P-9, [5-(2,4-difluorophenyl)-1,3,4-thiadiazol-2-yl]-[rac-(4S,7R)-4,7-dimethyl-7-(1-methylpyrazol-4-yl)-4,6-dihydrothieno[3,2-c]pyridin-5-yl]methanone] | ≥ 80 | ≥ 80 | at least 80% | ≥ 80 | – | – | – | – | – | – | – | –
2 | Cc1c(C2CN(C(=O)c3cc(-c4ccc(F)cc4F)on3)Cc3sccc32)cnn1C (centres unmarked) [Compound P-32, [5-(2,4-difluorophenyl)isoxazol-3-yl]-[4-(1,5-dimethylpyrazol-4-yl)-5,7-dihydro-4H-thieno[2,3-c]pyridin-6-yl]methanone] | ≥ 80 | ≥ 80 | – | ≥ 80 | ≥ 80 | ≥ 80 | ≥ 80 | ≥ 80 | ≥ 80 | ≥ 80 | ≥ 80 | ≥ 80
3 | Cc1c(C2CN(C(=O)c3cc(-c4ccc(F)cc4F)on3)Cc3ccsc32)cnn1C (centres unmarked) [Compound P-33, [5-(2,4-difluorophenyl)isoxazol-3-yl]-[7-(1,5-dimethylpyrazol-4-yl)-6,7-dihydro-4H-thieno[3,2-c]pyridin-5-yl]methanone] | ≥ 80 | ≥ 80 | – | ≥ 80 | ≥ 80 | ≥ 80 | ≥ 80 | ≥ 80 | ≥ 80 | ≥ 80 | ≥ 80 | ≥ 80
